ChEMBL document CHEMBL1201862, “PubChem BioAssay data set” (2004)
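Step 1: Grow cells in 96-well plates. Step 2: Expose to compound for 48 hours at 5 concentrations. Step 3: Interpolate endpoints linearly; if unreached, use highest concentration. GI50 marks 50% less growth.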 Calls of active or inactive are those of the source. Cut-off read from the data, not from the text of the source: active = GI50 up to about 1.1 µM and inactive = higher.

Key:
Test in all cases: growth of human tumour cells (NCI), 48 h
786-0 = tested on: 786-0
CCRF-CEM = tested on: CCRF-CEM
HCT-116 = tested on: HCT-116
HCT-15 = tested on: HCT-15
HOP-62 = tested on: HOP-62
HOP-92 = tested on: HOP-92
HT-29 = tested on: HT-29
LOX IMVI = tested on: LOX IMVI
MCF7 = tested on: MCF7
MDA-MB-435 = tested on: MDA-MB-435
Malme-3M = tested on: Malme-3M
NCI-H522 = tested on: NCI-H522
OVCAR-4 = tested on: OVCAR-4
PC-3 = tested on: PC-3
RXF 393 = tested on: RXF 393
SF-295 = tested on: SF-295
SF-539 = tested on: SF-539
SK-MEL-2 = tested on: SK-MEL-2
SK-OV-3 = tested on: SK-OV-3
SNB-19 = tested on: SNB-19

Compound | GI50 (786-0) | GI50 (CCRF-CEM) | GI50 (HCT-116) | GI50 (HCT-15) [µM] | GI50 (HOP-62) | GI50 (HOP-92) | GI50 (HT-29) | GI50 (LOX IMVI) | GI50 (MCF7) | GI50 (MDA-MB-435) | GI50 (Malme-3M) | GI50 (NCI-H522) | GI50 (OVCAR-4) | GI50 (PC-3) | GI50 (RXF 393) | GI50 (SF-295) | GI50 (SF-539) | GI50 (SK-MEL-2) | GI50 (SK-OV-3) | GI50 (SNB-19)
COc1ccc2cc(-c3ccc(OC)c(OC)c3)c(=O)oc2c1 | 52 µM (inactive) | > 100 µM (inactive) | > 100 µM (inactive) | > 100 | 69.5 µM (inactive) | > 100 µM (inactive) | > 100 µM (inactive) | > 100 µM (inactive) | > 100 µM (inactive) | > 100 µM (inactive) | > 100 µM (inactive) | > 100 µM (inactive) | > 100 µM (inactive) | > 100 µM (inactive) | 21.4 µM (inactive) | 53.1 µM (inactive) | > 100 µM (inactive) | > 100 µM (inactive) | > 100 µM (inactive) | 40 µM (inactive)
O=C1N2CCc3c([nH]c4ccccc34)C23CC2CCCCC12S3 (stereo not given) | > 100 µM (inactive) |  | > 100 µM (inactive) | > 100 | > 100 µM (inactive) | > 100 µM (inactive) | > 100 µM (inactive) | > 100 µM (inactive) | 39.4 µM (inactive) | > 100 µM (inactive) | > 100 µM (inactive) | > 100 µM (inactive) | > 100 µM (inactive) | > 100 µM (inactive) | > 100 µM (inactive) | > 100 µM (inactive) | > 100 µM (inactive) | < 0.01 µM (active) | > 100 µM (inactive) | > 100 µM (inactive)
CC(=O)O[C@H]1C[C@H](O[C@H]2[C@@H](O)C[C@H](O[C@H]3[C@@H](O)C[C@H](O[C@H]4CC[C@@]5(C)[C@H](CC[C@@H]6[C@@H]5CC[C@]5(C)[C@@H](C7=CC(=O)OC7)CC[C@]65O)C4)O[C@@H]3C)O[C@@H]2C)O[C@H](C)[C@H]1O[C@@H]1O[C@H](CO)[C@@H](O)[C@H](O)[C@H]1O | 0.0162 µM (active) | 0.0269 µM (active) | < 0.01 µM (active) | 0.0231 | < 0.01 µM (active) | 0.048 µM (active) | 0.0144 µM (active) | < 0.0159 µM (active) | 0.013 µM (active) | 0.034 µM (active) | 0.0278 µM (active) | < 0.01 µM (active) | < 0.0179 µM (active) | 0.0152 µM (active) | 0.0288 µM (active) | < 0.0161 µM (active) | < 0.014 µM (active) | 0.0452 µM (active) | 0.0395 µM (active) | 0.0658 µM (active)
CC1CC[C@@]2(OC1)OC1C[C@H]3[C@@H]4CC[C@H]5CC(OC6OC(CO)C(OC7OC(CO)C(O)C(O)C7OC7OC(CO)C(O)C(O)C7O)C(O)C6O)CCC5(C)[C@H]4CCC3(C)C1[C@@H]2C (stereo not given in full) | 1.56 µM (inactive) | 1.35 µM (inactive) | 1.94 µM (inactive) | 10.3 | 1.44 µM (inactive) | 5.2 µM (inactive) | 0.964 µM (active) | 1.76 µM (inactive) | 1.01 µM (active) | 2.65 µM (inactive) | 4.04 µM (inactive) | 1.63 µM (inactive) | 1.14 µM (inactive) | 0.838 µM (active) | 1.05 µM (active) | 4.26 µM (inactive) | 1.22 µM (inactive) | 2.38 µM (inactive) | 1.57 µM (inactive) | 3.37 µM (inactive)
COc1cc(/C=N/n2c(-c3ccccc3)n[nH]c2=O)cc(OC)c1OC | 3.5 µM (inactive) | 1.76 µM (inactive) | 0.641 µM (active) | 0.708 | 4.93 µM (inactive) | 13.8 µM (inactive) | 4.39 µM (inactive) | 3.22 µM (inactive) | 1.3 µM (inactive) | 0.218 µM (active) | 1.46 µM (inactive) | 0.675 µM (active) | > 26.9 µM (inactive) | 2.81 µM (inactive) | 4.94 µM (inactive) | 0.745 µM (active) | 1.96 µM (inactive) | 3.87 µM (inactive) | 2.56 µM (inactive) | 6.37 µM (inactive)
CCCCCCCCCC[C@@H](O)[C@H]1CC[C@@H]([C@H]2CC[C@H]([C@H](O)CCCCCCCCCC[C@@H]3CC(CC(C)=O)C(=O)O3)O2)O1 (stereo not given in full) | 25.8 µM (inactive) | 12.9 µM (inactive) | 2.68 µM (inactive) | 5.12 | 7.55 µM (inactive) | 17 µM (inactive) | 3.42 µM (inactive) | 1.23 µM (inactive) | 1.31 µM (inactive) | 32.4 µM (inactive) | 15.1 µM (inactive) | 12.8 µM (inactive) | 18.9 µM (inactive) | 4.05 µM (inactive) | 4.99 µM (inactive) | 1.77 µM (inactive) | 7.05 µM (inactive) | 4.94 µM (inactive) |  | 2.9 µM (inactive)
Cc1cc(O)nc2c3c(ccc12)OC(C)(C)C=C3 | 6.7 µM (inactive) | 3.71 µM (inactive) | 4.45 µM (inactive) | 4.85 | 8.2 µM (inactive) | > 100 µM (inactive) | 5.66 µM (inactive) |  | 3.48 µM (inactive) | 1.82 µM (inactive) | 13.2 µM (inactive) | 6.67 µM (inactive) | 18.6 µM (inactive) | 5.9 µM (inactive) | 5.25 µM (inactive) | 10.3 µM (inactive) | 3.27 µM (inactive) | 10.2 µM (inactive) | 11.3 µM (inactive) | 4.55 µM (inactive)
CC(=O)NC1C(OCc2ccccc2)OC(CO)C(O)C1OC(C)C(=O)NC(C)C(=O)N[C@@H](CCC(=O)OCCCNC1c2ccccc2Nc2cccc([N+](=O)[O-])c21)C(N)=O (stereo not given in full) | < 0.01 µM (active) |  | < 0.01 µM (active) | 0.0028 | < 0.01 µM (active) | < 0.01 µM (active) | < 0.01 µM (active) | 0.0269 µM (active) | 0.0124 µM (active) | 0.0157 µM (active) | < 0.01 µM (active) | < 0.01 µM (active) | < 0.0111 µM (active) | 0.0266 µM (active) | 0.0141 µM (active) | 0.0155 µM (active) | < 0.01 µM (active) | < 0.01 µM (active) | 0.0194 µM (active) | < 0.0124 µM (active)
Cc1cc2ccccc2n1CC(=O)N1CCCC1 | > 100 µM (inactive) | > 100 µM (inactive) | > 100 µM (inactive) | > 100 | > 100 µM (inactive) | > 100 µM (inactive) | > 100 µM (inactive) | > 100 µM (inactive) | > 100 µM (inactive) | > 100 µM (inactive) | > 100 µM (inactive) | > 100 µM (inactive) | > 100 µM (inactive) | > 100 µM (inactive) | > 100 µM (inactive) |  | > 100 µM (inactive) | > 100 µM (inactive) | > 100 µM (inactive) | > 100 µM (inactive)
O=C(NCCCCCCCCCCCCNC(=O)Nc1cccc2ccccc12)Nc1cccc2ccccc12 | 13.5 µM (inactive) | 16.6 µM (inactive) | 17.5 µM (inactive) | 18.4 | 6.15 µM (inactive) | 12.1 µM (inactive) | 21 µM (inactive) | 18 µM (inactive) | 18.3 µM (inactive) | 17.9 µM (inactive) | 15.3 µM (inactive) | 13.7 µM (inactive) | 11.2 µM (inactive) | 16.2 µM (inactive) | 15.2 µM (inactive) | 14.1 µM (inactive) | 13.2 µM (inactive) | 15.2 µM (inactive) |  | 15.1 µM (inactive)
Cc1c2ccccc2cc2nc3ccccc3n12 | > 10 µM (inactive) | > 10 µM (inactive) | > 10 µM (inactive) | > 10 | > 10 µM (inactive) | > 10 µM (inactive) | > 10 µM (inactive) |  | > 10 µM (inactive) | > 10 µM (inactive) | > 10 µM (inactive) | > 10 µM (inactive) | > 10 µM (inactive) | > 10 µM (inactive) | > 10 µM (inactive) | > 10 µM (inactive) | > 10 µM (inactive) | > 10 µM (inactive) | > 10 µM (inactive) | > 10 µM (inactive)
COc1ccc(C2C(C#N)=C(S)N(C3OC(CO)C(O)C(O)C3O)C(C)=C2C(C)=O)cc1 (stereo not given) | > 100 µM (inactive) | > 100 µM (inactive) | > 100 µM (inactive) | > 100 | > 100 µM (inactive) | 29 µM (inactive) | > 100 µM (inactive) | > 100 µM (inactive) | > 100 µM (inactive) | > 100 µM (inactive) | > 100 µM (inactive) | 60.4 µM (inactive) | > 100 µM (inactive) | 73.1 µM (inactive) | 50 µM (inactive) | > 100 µM (inactive) | > 100 µM (inactive) | > 100 µM (inactive) |  | > 100 µM (inactive)
CC(=S)N/C=C1/C(=O)C=C(C)OC1=O | > 100 µM (inactive) | > 100 µM (inactive) | > 100 µM (inactive) | > 100 | > 100 µM (inactive) | > 100 µM (inactive) | > 100 µM (inactive) | > 100 µM (inactive) | > 100 µM (inactive) | > 100 µM (inactive) |  | > 100 µM (inactive) | > 100 µM (inactive) | > 100 µM (inactive) | > 100 µM (inactive) | > 100 µM (inactive) | > 100 µM (inactive) | > 100 µM (inactive) | > 100 µM (inactive) | > 100 µM (inactive)
COc1ccc(NC(=O)NNS(=O)(=O)c2ccc(C)cc2)cc1 | 0.792 µM (active) | > 100 µM (inactive) | > 100 µM (inactive) | > 100 | > 100 µM (inactive) | > 100 µM (inactive) | > 100 µM (inactive) |  | > 100 µM (inactive) | 30.4 µM (inactive) | > 100 µM (inactive) | 45.1 µM (inactive) | 25.1 µM (inactive) | 71 µM (inactive) | > 100 µM (inactive) | > 100 µM (inactive) | > 100 µM (inactive) | > 100 µM (inactive) | > 100 µM (inactive) | > 100 µM (inactive)
